Legend:
mice = assay: Acute toxicity (LD50) by intraperitoneal administration in mice; type: in vivo; details: mice (male, 20 g)
Text: Representative LD50 values, for example, for N^2 -(5,6,7,8-tetrahydro-1-naphthylsulfonyl)-N-(2-methoxyethyl)glycine, N^2 -(7-methyl-2-naphthylsulfonyl)-N-butylglycine and N^2 -(6,7-dimethyl-1-naphthylsulfonyl)-N-(2-methoxyethyl)glycine are above 1,500 milligrams per kilogram, respectively.

thrombin = target: T1, thrombin (Bos taurus, UniProt P00735); assay: Fibrinogen coagulation time (thrombin-induced clotting of bovine fibrinogen); type: biochemical; details: thrombin 5 units/ml, borate saline buffer pH 7.4, 25° C, normal coagulation time 50-55 seconds prolonged to 100-110 seconds
T1 construct: purchased Mochida Pharmaceutical Co., Ltd
Description: The measurement of the fibrinogen coagulation time was conducted as follows:
Immediately after mixing, the reaction mixture was transferred from the ice bath to a bath maintained at 25° C. Coagulation times were taken as the period between the time of transference to the 25° C bath and the time of the first appearance of fibrin threads.
The term "concentration required to prolong the coagulation time by a factor of two" is the concentration of an active ingredient required to prolong the normal coagulation time 50-55 seconds to 100-110 seconds.

CCCCNC(=O)[C@H](CCCNC(=N)N)NS(=O)(=O)c1cccc2c(N(C)C)cccc12 [N^2 -dansyl-N-butyl-L-argininamide, reference compound]
acute toxicity value (LD50) (mice): 75 milligrams per kilogram

CCCCN(C)C(=O)[C@H](CCCNC(=N)N)NS(=O)(=O)c1cccc2c(N(C)C)cccc12 [N^2 -dansyl-N-methyl-N-butyl-L-argininamide, reference compound]
acute toxicity value (LD50) (mice): 70 milligrams per kilogram

CCCCN(CC(=O)O)C(=O)[C@H](CCCNC(=N)N)NS(=O)(=O)c1cccc2c1CCCC2 [Sample 1, N^2-(5,6,7,8-tetrahydro-1-naphthylsulfonyl)-L-arginyl-N-butylglycine]
Concentration required to prolong the coagulation time by a factor of two (thrombin): 20 µM

COCCN(CC(=O)O)C(=O)[C@H](CCCNC(=N)N)NS(=O)(=O)c1cccc2c1CCCC2 [Sample 3, N^2-(5,6,7,8-tetrahydro-1-naphthylsulfonyl)-L-arginyl-N-(2-methoxyethyl)glycine]
acute toxicity value (LD50) (mice): above 1,500 milligrams per kilogram | Concentration required to prolong the coagulation time by a factor of two (thrombin): 10 µM

N=C(N)NCCC[C@H](NS(=O)(=O)c1ccc2c(c1)CCCC2)C(=O)N(CC(=O)O)Cc1ccccc1 [Sample 4, N^2-(5,6,7,8-tetrahydro-2-naphthylsulfonyl)-L-arginyl-N-benzylglycine]
Concentration required to prolong the coagulation time by a factor of two (thrombin): 30 µM

CCCCN(CC(=O)O)C(=O)[C@H](CCCNC(=N)N)NS(=O)(=O)c1ccc2ccc(C)cc2c1 [Sample 14, N^2-(7-methyl-2-naphthylsulfonyl)-L-arginyl-N-butylglycine]
acute toxicity value (LD50) (mice): above 1,500 milligrams per kilogram | Concentration required to prolong the coagulation time by a factor of two (thrombin): 0.3 µM

COCCN(CC(=O)O)C(=O)[C@H](CCCNC(=N)N)NS(=O)(=O)c1ccc2ccc(C)cc2c1 [Sample 15, N^2-(7-methyl-2-naphthylsulfonyl)-L-arginyl-N-(2-methoxyethyl)glycine]
Concentration required to prolong the coagulation time by a factor of two (thrombin): 0.2 µM

Cc1ccc2ccc(S(=O)(=O)N[C@@H](CCCNC(=N)N)C(=O)N(CC(=O)O)CC3CCCCC3)cc2c1 [Sample 17, N^2-(7-methyl-2-naphthylsulfonyl)-L-arginyl-N-cyclohexylmethylglycine]
Concentration required to prolong the coagulation time by a factor of two (thrombin): 14 µM

COCCN(CC(=O)O)C(=O)[C@H](CCCNC(=N)N)NS(=O)(=O)c1cccc2ccc(C)cc12 [Sample 22, N^2-(7-methyl-1-naphthylsulfonyl)-L-arginyl-N-(2-methoxyethyl)glycine]
Concentration required to prolong the coagulation time by a factor of two (thrombin): 20 µM

COCCN(CC(=O)O)C(=O)[C@H](CCCNC(=N)N)NS(=O)(=O)c1cccc2cc(C)c(C)cc12 [Sample 23, N^2-(6,7-dimethyl-1-naphthylsulfonyl)-L-arginyl-N-(2-methoxyethyl)glycine]
acute toxicity value (LD50) (mice): above 1,500 milligrams per kilogram | Concentration required to prolong the coagulation time by a factor of two (thrombin): 10 µM

CCCCN(CC(=O)O)C(=O)[C@H](CCCNC(=N)N)NS(=O)(=O)c1cccc2c(N(C)C)cccc12 [Sample 24, N^2-(5-dimethylamino-1-naphthylsulfonyl)-L-arginyl-N-butylglycine]
Concentration required to prolong the coagulation time by a factor of two (thrombin): 4 µM
